Source: ChEMBL document CHEMBL1201862, “PubChem BioAssay data set” (2004)
The source made the active and inactive calls.

Tests used:
HEK293 [1] = assay: cells; conditions: Homo sapiens
HT-1080 = assay: cytotoxicity in HT1080 fibrosarcoma cells, cell-based, fluorescence readout (AID 620); type: functional; conditions: Homo sapiens
[2] = cytotoxicity in MIN6 insulinoma cells, dose response, cytotoxicity control, cell-based, mouse insulinoma (AID 2122); type: functional;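 also: confirmatory high-throughput counterscreen run to flag cytotoxic compounds; mouse MIN-6 beta cells carrying an insulin promoter eGFP reporter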
[3] = molecular target: T1, DNA repair and recombination protein RAD54-like (Homo sapiens, UniProt Q92698); assay: inhibitors of human RAD54 branch migration, confirmation, biochemical, fluorescence, cherry-picked samples, dose series (AID 651657); type: functional
T1 sequence (Q92698 whole entry): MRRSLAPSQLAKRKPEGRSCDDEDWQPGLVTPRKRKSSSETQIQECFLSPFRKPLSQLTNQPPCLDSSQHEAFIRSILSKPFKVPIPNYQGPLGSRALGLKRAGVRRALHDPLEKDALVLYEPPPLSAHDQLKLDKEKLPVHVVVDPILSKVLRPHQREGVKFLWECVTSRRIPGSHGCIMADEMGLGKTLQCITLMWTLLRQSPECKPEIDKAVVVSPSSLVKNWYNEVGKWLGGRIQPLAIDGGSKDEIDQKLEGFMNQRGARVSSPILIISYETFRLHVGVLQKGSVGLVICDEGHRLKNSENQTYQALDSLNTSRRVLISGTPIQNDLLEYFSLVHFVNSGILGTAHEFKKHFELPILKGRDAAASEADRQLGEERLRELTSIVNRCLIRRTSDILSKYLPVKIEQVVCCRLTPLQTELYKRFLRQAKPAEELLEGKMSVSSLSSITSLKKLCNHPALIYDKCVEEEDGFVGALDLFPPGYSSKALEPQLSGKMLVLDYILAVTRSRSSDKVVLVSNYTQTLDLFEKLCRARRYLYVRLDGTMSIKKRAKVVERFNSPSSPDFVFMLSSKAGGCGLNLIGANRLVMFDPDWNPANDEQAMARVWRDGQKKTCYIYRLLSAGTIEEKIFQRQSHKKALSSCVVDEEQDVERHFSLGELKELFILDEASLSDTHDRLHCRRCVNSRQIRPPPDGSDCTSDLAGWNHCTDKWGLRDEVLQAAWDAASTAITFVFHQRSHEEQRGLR

[4] = Luminescence Cell-Based Dose Response HTS to Identify Inhibitors of 5'UTR Stem-Loop Driven Prion Protein mRNA Translation in H4 Neuroglioblastoma Cells. [Related pubchem assays: 1827 (Project Summary), 1813 (Primary HTS)]; type: functional
CAAX prenyl protease 2 = CAAX prenyl protease 2 (Homo sapiens, UniProt Q9Y256); assay: human Rce1 protease inhibitors, dose response, biochemical, yeast membranes, quenched-peptide fluorescence, cherry-pick (AID 588849)
[5] = insulin promoter down-regulators in MIN6 cells, imaging, high-content screening, mouse beta cells (AID 1628); type: functional
[6] = inhibitors of SNCA 5'UTR-driven reporter translation, confirmation, H4 neuroglioma cells, luminescence (AID 1988); type: functional, cell-based
[7] = molecular target: Luciferin 4-monooxygenase (Photinus pyralis, UniProt P08659); assay: Counter Screen for Luciferase-based Assay Positives. [Related pubchem assays: 620, 618, 411 ]
HEK293 [8] = assay: cells; conditions: Homo sapiens; remark: listed apart in the source
[9] = DNA binding of candidate compounds, dose response, artefact control for RAD54 inhibitor project, biochemical, fluorescence polarization, cherry-pick (AID 651673); type: functional
[10] = cytotoxicity toward DRD oncogenic fibroblasts, dose response, cell-based, non-viral oncogenic, luminescence (AID 1934); type: functional; conditions: Homo sapiens
A-375 = assay: A375 melanoma cell viability reduction, dose response, counter-screen for MITF modulator project, cherry-pick samples, set 2 (AID 540335); type: functional, cell-based; conditions: Homo sapiens
[11] = molecular target: T2, Microphthalmia-associated transcription factor (Homo sapiens, UniProt O75030); assay: TRPM1 promoter luciferase signal decrease, dose response, MITF inhibitor project, cell-based, SK-MEL-5, cherry-picked, set 3 (AID 493073); type: functional
T2 sequence (O75030 whole entry): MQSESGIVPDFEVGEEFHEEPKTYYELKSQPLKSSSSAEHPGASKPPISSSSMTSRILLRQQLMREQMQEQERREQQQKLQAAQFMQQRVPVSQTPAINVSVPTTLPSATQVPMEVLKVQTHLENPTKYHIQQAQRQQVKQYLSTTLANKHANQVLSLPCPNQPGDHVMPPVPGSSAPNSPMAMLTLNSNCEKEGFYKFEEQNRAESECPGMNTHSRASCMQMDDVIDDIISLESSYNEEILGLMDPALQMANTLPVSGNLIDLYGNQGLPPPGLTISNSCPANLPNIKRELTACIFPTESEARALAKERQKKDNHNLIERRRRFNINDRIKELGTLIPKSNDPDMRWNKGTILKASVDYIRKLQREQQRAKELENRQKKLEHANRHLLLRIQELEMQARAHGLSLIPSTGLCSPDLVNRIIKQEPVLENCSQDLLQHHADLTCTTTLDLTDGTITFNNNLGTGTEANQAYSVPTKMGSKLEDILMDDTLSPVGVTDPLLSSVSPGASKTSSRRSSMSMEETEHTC

BJ [12] = assay: cytotoxicity toward BJ-TERT fibroblasts, dose response, cell-based, RAS-independent, luminescence (AID 1933); type: functional; conditions: Homo sapiens
BJ [13] = assay: cytotoxicity toward BJ-TERT-LT-ST fibroblasts, dose response, cell-based, RAS-independent, luminescence (AID 1935); type: functional; conditions: Homo sapiens;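 also: BJ fibroblasts immortalized with TERT plus LT and ST oncogenes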
BJ [14] = assay: cells; type: functional, cell-based; conditions: Homo sapiens
BJ [15] = assay: cytotoxicity toward Ras-transformed BJeLR fibroblasts, dose response, cell-based, alamar blue fluorescence, cherrypicked samples (AID 2631); type: functional; conditions: Homo sapiens;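 also: confirmatory dose-response assay in RAS-dependent BJ fibroblasts engineered with TERT, LT and ST, with cytotoxicity read by fluorescence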
Paired box protein Pax-8 = Paired box protein Pax-8 (Homo sapiens, UniProt Q06710); assay: inhibitors of PAX8-driven TPO luciferase reporter, dose response, RMG-I cells, cherry-pick (AID 687027); type: functional, cell-based;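 also: luciferase reporter driven by Pax8 target thyroperoxidase promoter measured by SteadyGlo luminescence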
[16] = cytotoxicity in HEK-293T cells, dose response, cytotoxicity control for BCR NF-kB inhibitor project, luminescence, B-cell screen hits (AID 489021); type: functional, cell-based;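 also: HEK-293T cells carrying an NF-kB luciferase reporter; cells exposed to compound for about 14 hours before viability readout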
HEK293 [17] = assay: SAR Analysis of small molecule inhibitors of T-cell specific antigen receptor-induced NF-kB activation in a HEK-293T cell line using a luminescence assay - Set 2. [Related pubchem assays (depositor defined):AID435003, AID435012, AID489026]; type: functional, cell-based; conditions: Homo sapiens
HEK293 [18] = assay: cytotoxicity in HEK293T NF-kB-Luc cells, SAR follow-up, cytotoxicity control for NF-kB activator project, cell-based, resazurin fluorescence (AID 493251); type: functional
Jurkat = assay: SAR Analysis of small molecule inhibitors of T-cell specific antigen receptor-induced NF-kB activation in a Jurkat cell line using a luminescence assay - Set 2. [Related pubchem assays (depositor defined):AID435003, AID435012, AID465]; type: functional, cell-based; conditions: Homo sapiens

Luciferin 4-monooxygenase, sequence (P08659 whole entry): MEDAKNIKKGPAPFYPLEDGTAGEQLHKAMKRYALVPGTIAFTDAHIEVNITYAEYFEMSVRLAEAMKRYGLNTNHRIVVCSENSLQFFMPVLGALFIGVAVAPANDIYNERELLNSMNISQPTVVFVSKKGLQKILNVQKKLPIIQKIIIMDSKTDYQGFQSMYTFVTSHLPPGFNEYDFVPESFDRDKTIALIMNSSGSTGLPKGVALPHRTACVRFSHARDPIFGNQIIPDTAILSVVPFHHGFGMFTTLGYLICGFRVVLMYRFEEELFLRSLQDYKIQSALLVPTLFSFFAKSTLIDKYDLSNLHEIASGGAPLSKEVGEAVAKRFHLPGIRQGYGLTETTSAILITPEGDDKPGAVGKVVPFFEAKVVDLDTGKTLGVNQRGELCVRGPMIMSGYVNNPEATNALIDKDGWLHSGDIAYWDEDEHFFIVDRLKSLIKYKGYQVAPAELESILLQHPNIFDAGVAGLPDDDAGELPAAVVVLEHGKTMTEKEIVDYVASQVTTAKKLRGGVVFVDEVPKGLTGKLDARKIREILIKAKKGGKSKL
Paired box protein Pax-8, sequence (Q06710 whole entry): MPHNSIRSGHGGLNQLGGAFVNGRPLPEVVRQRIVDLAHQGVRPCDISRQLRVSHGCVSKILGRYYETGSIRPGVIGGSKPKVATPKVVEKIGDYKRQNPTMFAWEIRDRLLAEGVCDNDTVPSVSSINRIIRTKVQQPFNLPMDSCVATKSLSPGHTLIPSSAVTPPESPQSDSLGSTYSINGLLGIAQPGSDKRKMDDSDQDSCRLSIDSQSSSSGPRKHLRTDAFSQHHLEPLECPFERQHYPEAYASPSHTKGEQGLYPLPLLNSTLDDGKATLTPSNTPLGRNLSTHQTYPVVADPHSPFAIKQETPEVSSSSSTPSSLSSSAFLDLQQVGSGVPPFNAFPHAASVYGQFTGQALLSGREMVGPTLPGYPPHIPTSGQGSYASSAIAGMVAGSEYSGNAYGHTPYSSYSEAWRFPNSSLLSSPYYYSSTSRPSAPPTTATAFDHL
CAAX prenyl protease 2, sequence (Q9Y256 whole entry): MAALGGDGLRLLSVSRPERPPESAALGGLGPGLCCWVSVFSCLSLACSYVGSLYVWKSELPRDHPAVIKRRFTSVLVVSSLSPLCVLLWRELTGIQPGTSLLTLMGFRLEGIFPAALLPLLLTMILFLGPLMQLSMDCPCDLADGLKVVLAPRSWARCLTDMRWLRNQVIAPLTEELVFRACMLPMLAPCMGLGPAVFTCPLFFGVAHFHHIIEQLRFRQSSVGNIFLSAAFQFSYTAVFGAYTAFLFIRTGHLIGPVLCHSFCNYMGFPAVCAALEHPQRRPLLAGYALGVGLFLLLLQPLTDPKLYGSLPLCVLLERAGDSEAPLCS

In the case of `Nc1cccc2nc3ccccc3cc12`, the EC50 (HEK293 [1]) is reported as > 59.7 µM (inactive), the EC50 (HT-1080) is reported as 22.8 µM (active) and the IC50 [2] is reported as 4.9 µM (active). The AC50 [3] was 4.75 µM (active), the EC50 [4] was 7.26 µM (active) and the AC50 (CAAX prenyl protease 2) was 5.07 µM (active). The IC50 [5] was 3.72 µM (active), the EC50 [6] was > 120 µM (not active) and the EC50 [7] was 0.95 µM (active). For the same molecule, the EC50 (HEK293 [8]) was > 6.63 µM (active) and the AC50 [9] was 54 µM (active).
For `Cc1cc(-n2c(SCC(=O)NCCC3=CCCCC3)nc3nnc(C)c-3c2N)ccc1Cl`, the EC50 [10] was 14 µM (active), the AC50 (A-375) was 37.6 µM (active) and the AC50 [11] was 17.1 µM (active). The EC50 (BJ [12]) was 6.61 µM (active), the EC50 (BJ [13]) was > 150 µM (inconclusive) and the EC50 (BJ [14]) was > 150 µM (not active). For the same molecule, the EC50 (BJ [15]) was > 133 µM (inactive) and the AC50 (Paired box protein Pax-8) was 7.33 µM (active).
In the case of `CCNC(=O)CCc1nc(-c2ccc(C(C)(C)C)cc2)no1`, the IC50 [16] is reported as > 80 µM (inactive), the IC50 (HEK293 [17]) is reported as 34 µM (inactive) and the IC50 (HEK293 [18]; Homo sapiens, HEK293) is reported as 76.1 µM (inactive). For the same molecule, the IC50 (HEK293 [18]; hek293) was 79.3 µM (inactive) and the IC50 (Jurkat) was > 79 µM (inactive).
